Assay results: patent US4673562A, “Bisamide bisthiol compounds useful for making technetium radiodiagnostic renal agents” (The Children's Medical Center Corporation, priority 1983, dated 1987)
“And” between values parts separate entries of the source, which are not always exact repeats. Identical values can stand only once.

How the values were obtained:
[1] = Gamma camera: % total dose in bladder, 99mTc complexes coinjected with 131I-OIH into normal dogs (Tables I, III); assay type: in vivo, dog; conditions: Table III, 35 min, coinjected with the 99mTc complex of the line
Description: The two fractions collected from the products of synthesis in each case were denoted (XVIA), (XVIB), (XXXIA), and (XXXIB), respectively.
Images were recorded at 1, 5, 10, 15, 20, 25, 30 and 35 minutes after administration. The initial image at one minute was used to collect 750,000 counts. All subsequent images were exposed for the same length of time as this first image, and the number of counts noted. […] In this way, the counts collected in the camera images cound be related to absolute activity levels (mCi or μCi). The animals were then observed until the urine samples were free of ^99m Tc.
The values represent the calculated % total dose in the camera region of interest set over the bladder.

[2] = Biodistribution in Swiss Webster albino male mice, coinjected with 131I-OIH (Tables IV, V); assay type: in vivo, mouse
Description: The diastereomers (XVIA) and (XVIB) were synthesized and then isolated by high pressure liquid chromatography as described previously, and their biodistributions obtained in groups in six Swiss Webster albino male mice. […] The mice were then placed in metabolic cages to collect urine. At 10 and 120 minutes after injection, the penis was ligated, the mice killed with chloroform vapor, and the organs disected.

[3] = cited from earlier work
[4] = Solubility of bisthiol compound; assay type: physicochemical
[5] = in vivo; cited from earlier work
[6] = Table IV, 10 min, XVI A and 131I-OIH coinjected
[7] = Table IV, 120 min, XVI A and 131I-OIH coinjected
[8] = Table V, 10 min, XVI B and 131I-OIH coinjected
[9] = Table V, 120 min, XVI B and 131I-OIH coinjected

O=C(O)CNC(=O)c1ccccc1[131I] [Compound 131I-OIH, ^131 I-ortho-iodohippurate, reference compound]
% total dose in bladder at 35 minutes, Average 131I (± s.d) ([1]; average of dogs): 73.60 % total dose and 72.02 % total dose and 76.69 % total dose and 80.87 % total dose
% total dose in bladder at 35 minutes, 131I ([1]; single dogs): 73.14 % total dose and 77.31 % total dose and 70.39 % total dose and 61.75 % total dose and 77.21 % total dose and 77.10 % total dose and 74.35 % total dose and 82.53 % total dose and 73.20 % total dose and 87.52 % total dose and 75.71 % total dose and 79.39 % total dose
Blood, % total dose per organ ± s.d. [2, 6]: 2.80 ± 0.24 % total dose per organ
Intestine, % total dose per organ ± s.d. [2, 6]: 1.15 ± 0.23 % total dose per organ
Kidneys, % total dose per organ ± s.d. [2, 6]: 2.18 ± 0.29 % total dose per organ
Liver, % total dose per organ ± s.d. [2, 6]: 1.36 ± 0.24 % total dose per organ
Stomach, % total dose per organ ± s.d. [2, 6]: 0.36 ± 0.10 % total dose per organ
Urine, % total dose ± s.d. [2, 6]: 64.80 ± 7.31 % total dose per organ
Blood, % total dose per organ ± s.d. [2, 7]: 0.22 ± 0.04 % total dose per organ
Intestine, % total dose per organ ± s.d. [2, 7]: 0.45 ± 0.19 % total dose per organ
Kidneys, % total dose per organ ± s.d. [2, 7]: 0.01 ± 0.06 % total dose per organ
Liver, % total dose per organ ± s.d. [2, 7]: 0.14 ± 0.03 % total dose per organ
Stomach, % total dose per organ ± s.d. [2, 7]: 0.60 ± 0.19 % total dose per organ
Urine, % total dose ± s.d. [2, 7]: 89.86 ± 3.03 % total dose per organ
Blood, % total dose per organ ± s.d. [2, 8]: 2.11 ± 0.62 % total dose per organ
Intestine, % total dose per organ ± s.d. [2, 8]: 0.91 ± 0.27 % total dose per organ
Kidneys, % total dose per organ ± s.d. [2, 8]: 3.09 ± 3.36 % total dose per organ
Liver, % total dose per organ ± s.d. [2, 8]: 1.20 ± 0.41 % total dose per organ
Stomach, % total dose per organ ± s.d. [2, 8]: 0.42 ± 0.63 % total dose per organ
Urine, % total dose ± s.d. [2, 8]: 78.86 ± 5.1 % total dose per organ
Blood, % total dose per organ ± s.d. [2, 9]: 0.19 ± 0.08 % total dose per organ
Intestine, % total dose per organ ± s.d. [2, 9]: 0.24 ± 0.04 % total dose per organ
Kidneys, % total dose per organ ± s.d. [2, 9]: 0.05 ± 0.04 % total dose per organ
Liver, % total dose per organ ± s.d. [2, 9]: 0.10 ± 0.04 % total dose per organ
Stomach, % total dose per organ ± s.d. [2, 9]: 0.71 ± 0.27 % total dose per organ
Urine, % total dose ± s.d. [2, 9]: 93.25 ± 0.89 % total dose per organ
time to maximum uptake in normal kidneys ([3]; bolus injection): within the first five minutes
clearance relative to PAH ([3]; in vivo): lower clearance than PAH
injected dose found in the urine ([3]; normally hydrated patient, at thirty minutes, 30 min): approximately 70%
clearance from the renal parenchyma and collecting system ([3]; normally hydrated patient, bolus injection): within thirty minutes

Nc1ccc(C(=O)NCC(=O)O)cc1 [PAH, Paraaminohippuric acid]
elimination by glomerular filtration ([3]; kidneys): 20%
elimination by tubular secretion ([3]; kidneys): 80%
renal plasma flow as measured by PAH ([3]; normal adult): about 575 ml/minute
extraction by the normal kidney ([3]; normal kidney): 90%

O=C(NCCS)C(=O)NCCS [XXXII, N, N'-bis(2-mercaptoethyl)oxamide]
solubility [4]: soluble only in DMSO, trifluoroacetic acid and aqueous alkali

O=C1C[S][Tc-]23(=[O])[S]CC(=O)[N]2CC[N]13 [[TcO(ema)]-]
excretion route and metabolic state [5]: excreted into both the urine and bile in a chemically unchanged form

O=C(O)Cn1cc(I)c(=O)c(I)c1 [iodo-pyracet]
removal from circulation by the liver ([3]; in vivo): partial removal from the circulation by the liver

[O]=[Tc](=[O])(=[O])[O-] [pertechnetate]
absolute concentration in the renal parenchyma ([3]; in vivo): low
filtered activity reabsorbed by the renal tubules ([3]; in vivo): about 86%
urinary excretion ([3]; in vivo): relatively slow
